Experiments:
[1] = Preclinical animal toxicology studies; details: in vivo
AML = details: cited from earlier work
[2] = cited from earlier work
APL = details: cited from earlier work
CD34+ cells = details: cited from earlier work
[3] = cells collected by Plerixafor plus G-CSF

Description for glioblastoma: Normalized relative cerebral blood volume (rCBV) ratios were calculated by the mean rCBV within the 95% isodose radiation field one month post-radiation as compared to contralateral white matter outside of the radiation field.

c1cc(CN2CCCNCCNCCCNCC2)ccc1CN1CCCNCCNCCCNCC1 [Plerixafor]
approximate human equivalent dose of early adverse neurologic effects [1]: 470-940 μg/kg
Plerixafor unrelated deaths (AML; 4 patients, 240 μg/kg): 17%
complete response (CR) (AML; 14 of 21 patients with available data): 67%
DLTs (AML; 240, 320, 400, 480 μg/kg IV): No DLTs have been reported
patients with adverse events at least possibly related to Plerixafor (AML; Eighteen patients): 86%
patients with Grade 3 Plerixafor-related AEs (AML; Four patients): 19%
patients with Grade 4 related AEs (AML; One patient, 480 μg/kg cohort, thrombocytopenia and asymptomatic pulmonary embolism): 5%
time of peak PB AML blasts (AML; day 2, after administration): 2 to 4 h
increase in PB AML blasts, mean (AML; day 7): 1.51 fold
median time to neutrophil (0.5×109/L) recovery for responders (AML; in vivo): 19.5 (range 13-35) days
median time to platelet (100×109/L) recovery for responders (AML; in vivo): 21 (range 17-37) days
rise in PB AML blasts, mean increase (AML; infusion on day 2): 3.01 fold
severity of the majority of related adverse events (AML; mainly gastrointestinal disorders): grade ½
adverse events that occurred more frequently with Plerixafor than placebo ([2]; G-CSF plus Plerixafor 240 μg/kg SC): insomnia, headache, dizziness, diarrhea, nausea, flatulence, abdominal pain, vomiting, abdominal distention, dry mouth, stomach discomfort, constipation, dyspepsia, hypoaesthesia oral, arthralgia, musculoskeletal pain, hyperhidrosis, erythema, injection site reactions, fatigue, and malaise
tolerability ([2]; Plerixafor 240 μg/kg in conjunction with G-CSF, NHL or MM): well-tolerated
PMN and PLT engraftment of mobilized hematopoietic stem cells ([2]; Plerixafor and G-CSF compared to G-CSF alone, both trials): equally capable of prompt and durable PMN and PLT engraftment
rate of out of field recurrence (glioblastoma; as of Feb. 7, 2017, expected 20%, p<0.03, Fisher's exact test): 77%
rCBV measured by DSC-MRI within the 95% isodose field (glioblastoma; one month after radiation therapy, patients receiving Plerixafor compared to control, p<0.02): significant reduction
rCBV out of the radiation field (glioblastoma; one-month post radiation therapy, Plerixafor compared to control patients): similar
anti-tumor effect of Plerixafor alone (APL; in these experiments (leukemia models)): no detectable anti-tumor effect
median overall survival (APL; untreated control 18 days, cytarabine vs cytarabine+Plerixafor p<0.0006): 19 days
patients achieving ≥5×10^6 CD34+ cells/kg (CD34+ cells; Plerixafor plus G-CSF compared to G-CSF alone): More patients
CD34+ cells mobilized in patients who mobilized poorly with G-CSF alone (CD34+ cells; Plerixafor plus G-CSF, nine patients, all patients): > 2×10^6 CD34+ cells/kg
median day of platelet engraftment (CD34+ cells; [3]): 17 days
median day of polymorphonuclear leukocyte (PMN) engraftment (CD34+ cells; [3]): 10 days
drug-related serious or unexpected adverse effects (CD34+ cells; human, in vivo): no drug-related serious adverse effects or unexpected adverse effects

Reference: patent publication US20180344690A1, “Methods and Formulation for Enhancing Response to Radiotherapy” (The Board of Trustees of the Leland Stanford Junior …, priority 2017, published 2018)
